Data as given in PMC6597546, “Identification of a potent benzoxaborole drug candidate for treating cryptosporidiosis” (Nature Communications, 2019).
Where “and” joins values, the source holds several entries; their conditions need not be identical. Equal values may be shown once. Read-outs that look alike come from different tables or passages of the source.

Legend:
[1] = test system: C. parvum (University of Arizona Iowa isolate); assay type: in vivo, C57BL/6 IFN-γ−/− mice
Protocol: Interferon gamma (IFN-γ) knockout mice were used to model acute Cryptosporidium infection. All IFN-γ knockout mouse studies were performed in compliance with animal care guidelines and were approved by the Explora BioLabs (San Diego, CA) Institutional Animal Care and Use Committee. Four-week-old female C57BL/6 IFN-γ^−/− mice with normal flora were purchased from The Jackson laboratory and acclimated for 3 days prior to infection by oral gavage with ∼10^6 C. parvum Iowa isolate oocysts (Sterling Laboratory, University of Arizona) suspended in sterile distilled water. At the indicated times following infection, mice were treated with compound vehicle alone, clofazimine (positive control), or once daily AN7973 at the indicated doses. Fecal parasite shedding was measured by isolating oocysts using sucrose gradient centrifugation. Sheather’s sucrose solution was freshly prepared by dissolving 156.25 g sucrose and 2.5 mL phenol in 100 mL water. Two sucrose solutions were prepared: (A) specific gravity of 1.103 (33% Sheather’s and 0.1% Tween 80 in PBS) and (B) specific gravity of 1.064 (20% Sheather’s and 0.1% Tween 80 in PBS). In a 2 mL microfuge tube, a gradient was prepared by laying 0.75 mL of solution A, then carefully laying 0.75 mL of solution B, slowly as to prevent mixing of the two layers. Fecal pellets were removed from storage, and homogenized by vortexing and pipetting. 0.2 mL fecal homogenate was overlaid on top of gradient in each microfuge tube. Oocysts were floated from feces by centrifugation at 1000 × g for 20 min and collected with a pipet tip from the 1.064/1.103 specific gravity interface between solutions A and B. Oocysts were rinsed once in cold PBS, pelleted by centrifugation at 15,000 × g for 10 min, and resuspended in PBS. Isolated oocysts were then stained with a fluorescein isothiocyanate-conjugated mouse anti-Cryptosporidium antibody (Bio-Rad catalog# 2402-3007 F; 0.25 µg per sample) and quantified using a Guava EasyCyte flow cytometer and CytoSoft data acquisition software (version 5.3; Guava Technologies, Inc.). Oocysts per milliliter of sample were normalized to counts per milligram of feces.

[2] = test system: C. parvum (Bunch Grass Farms Iowa isolate); parameters: method as in PMID 29339392; details: cited from earlier work

CC(C)/N=c1\cc2n(-c3ccc(Cl)cc3)c3ccccc3nc-2cc1Nc1ccc(Cl)cc1 [Clofazimine, clofazimine, reference compound]
fecal oocyst shedding, individual mice ([1]; 10 mg/kg QD from day 4, day p.i. 14): 15 (2×) and 18 and 16
fecal oocyst shedding, individual mice ([1]; 25 mg/kg QD from day 4, day p.i. 8): 10 and 8 (2×) and 9
efficacy against Cryptosporidium in the NSG mouse [2]: lacks efficacy
